Where two headings read alike, the source gives them in different places.
How the values were obtained:
[1] = cited from earlier work
[2] = water, ethanol; cited from earlier work
[3] = tested on: type 1 diabetes rat model (IDDM); assay: test of type 1 diabetes rat model (streptozotocin, day 3-6 after injection); format: in vivo, rats; conditions: 2.4 ml/kg intubated, 2 hours after dose
Text: Establishment of a type 1 diabetes rat test model. Recent years, more people have definitely expressed that viewed streptozotocin-induced of diabetes test model. Although, it is a model of type 1 diabetes in principle, but can using as a model of type 2 diabetes.

type 2 diabetes patients = conditions: for postprandial blood glucose peak at breakfast: 0.9 ml at three meals daily, 7 days
Text: Patient keep measurable middling food and drink in the interim.

[4] = tested on: delayed type diabetic Wistar rat model (type 1 diabetes); assay: delayed type streptozotocin plus CFA/IFA type 1 diabetes rat model; format: in vivo, Wistar rats; design: unit not given here; conditions: table: d-limonene 0.8 ml/kg; fasting 4 hours, 2 hours after dose; before treating 24.4 ± 2.958; p<0.01
healthy volunteers = assay: test to healthy volunteers; format: in vivo, human; conditions: for postprandial blood glucose peak at breakfast: 0.9 ml at three meals daily, 7 days
Experimental: A person, Healthy have not any disease.
A person, healthy without any disease. fasting blood glucose was waved in 5.0-5.4 mmol/L (79-96 mg/dl), in postprandial blood glucose 8-12.2 mmol/L ([…]) between. Abnormal glucose tolerance test.

[5] = tested on: type 2 diabetes rat model; assay: test of type 2 diabetes rat model (streptozotocin, fast-generated NIDDM model); format: in vivo, Wistar rats; design: unit not given here; conditions: 2.4 ml/kg intubated, fasting 4 hours, blood 2 hours after dose; before treatment 27.14 ± 1.154; p<0.01
[6] = tested on: drug-induced diabetic rats; assay: blood glucose in drug-induced diabetic rats, summary statement; format: in vivo; conditions: oral 0.8-2.4 ml/kg, within 0.5-2 hours
Text: The present invent can reduce fasting blood glucose of that severe case streptozotocin-induced rats of type 1 and type 2 diabetes.

healthy rats = assay: blood glucose of healthy rats; conditions: rat, in vivo
[7] = Example 6 patient, treatment for 12 weeks
[8] = Example 7 patient, 7 days treatment

## C=C(C)C1CC=C(C)CC1 (stereo not shown) [Limonene, 1-methyl-4-prop-1-en-2-yl-cyclohexene]
[1]; from initial limonene, after oral administration
  Perilla acid methyl ester and Dihydrotestosterone Perilla acid methyl ester in plasma: 5%
[1]; in vivo
  eliminated in the CO2 exhaled: 2%
  eliminated in the dejecta: 5%
[1]; of limonene in plasma
  converted to primary metabolites Dihydrotestosterone acid Perilla and Perilla acid: about 35%
[1]; of the initial volume
  converted to limonene 1,2-diol: about 18%
[1]; within 24 hours
  eliminated in the urine: about 60%
[2]
  solubility: do not in water but in ethanol

## C=C(C)[C@H]1CC=C(C)CC1 [d-limonene, (4R)-1-methyl-4-prop-1-en-2-ylcyclohexene]
[3]; IDDM group 25.27 ± 2.632, p<0.01
  Blood glucose, First day: 20.26 ± 5.039 mmol/L
[3]; IDDM group 25.97 ± 2.966, p>0.05
  Blood glucose, Four day: 23.32 ± 4.891 mmol/L
[3]; IDDM group 26.08 ± 3.896, p<0.05
  Blood glucose, Third day: 21.88 ± 5.754 mmol/L
[3]; IDDM group 26.17 ± 2.858, p<0.05
  Blood glucose, 1-4 days Average: 21.89 ± 5.230 mmol/L
[3]; IDDM group 27.36 ± 1.243, p<0.01
  Blood glucose, Second day: 22.08 ± 5.421 mmol/L
[1]; after oral administration
  absorption from the gastrointestinal: absorbed rapidly
[1]; within 48 hours
  absorbed drug excreted by the urethra: 75-95%
Type 2 diabetes patients; Example 6 patient, before: under 15.6 mmol/L
  postprandial blood glucose peak at breakfast: 11.8 mmol/L
Type 2 diabetes patients; Example 6 patient, 6-8 hours after the meal, after 12 weeks
  hypoglycemic reaction without food: have not hypoglycemic reaction
Type 2 diabetes patients; Example 6 patient, 7 days treatment
  time of postprandial blood glucose peak: 1.25 h
Type 2 diabetes patients; [7]
  peak value time: 0.75 h
  postprandial blood glucose peak value: 10.4 mmol/L
Type 2 diabetes patients; Example 7 patient, before: maximum 23 mmol/L
  postprandial blood glucose peak at breakfast: 18.7 mmol/L
Type 2 diabetes patients; [8]
  blood glucose level average reduce, before to after treating: 6.99 mmol/L
  time of postprandial blood glucose peak: 1.25 h
Type 2 diabetes patients; type 2 diabetes patients, 0.9 ml after three meals daily
  effect on postprandial blood glucose levels: clear and stably reduce postprandial blood glucose levels
[4]
  fasting glucose after treating: 17.45 ± 1.886
Healthy volunteers; Example 8, healthy person
  blood glucose compared before and after treatment: blood glucose basically unchanged
  time of postprandial blood glucose peak: 0.5 h
  postprandial blood glucose peak at breakfast: 6.3 to 8.4 mmol/L
Healthy volunteers; Example 9, person
  blood glucose compared before and after treatment: blood glucose basically unchanged
  time of postprandial blood glucose peak: 0.5 h
Healthy volunteers; Example 9, person, abnormal glucose tolerance test, before 8-12.2 mmol/L
  postprandial blood glucose peak at breakfast: 10.3 to 11.7 mmol/L
Healthy volunteers; human, in vivo
  effect on postprandial or fasting blood glucose level in healthy: do not reduce postprandial or fasting blood glucose level
[5]
  fasting glucose after treatment: 19.39 ± 6.064
[6]
  effect on blood glucose level: blood glucose level reduce a lot
Healthy rats
  effect on blood glucose of healthy rats: do not reduce blood glucose of healthy rats
